Assays:
LNCaP cells = experiment: MTT cell viability assay; assay type: cell-based; conditions: drug concentration 5 μM, Dox to RNA 1:1, treated approximately one hour, total of 72 hours
Procedure: (§1) Doxorubicin (Dox), a cytotoxic drug commonly used in chemotherapy that can dock into double-stranded portions of nucleic acids because of the stacking capacity of its many-ringed structure, was “loaded” onto oligonucleotides at a molar ratio of 1:1, Dox to RNA, e.g., as described in Bagalkot, V. et al., Angewandte Chemie (International ed 45, 8149-8152 (2006) (the drug concentration was 5 μM). MTT assays were performed essentially as previously described, e.g., in Akaishi, S. et al., The Tohoku Journal of Experimental Medicine 175, 29-42 (1995). Briefly, 100 μl aliquots of LNCaP or PC3 cells (5×10^3 cells/mL) were seeded in 24-well plates (n=5), allowed to grow overnight and treated, for approximately one hour, with 100 μL of either a) nothing; b) Dox alone; c) Dox conjugated with the initial library; d) Dox conjugated to the Rd-12 population of the LNCaP selection; or e) Dox conjugated to the Rd-12 population of the PC3 selection; then washed and further incubated, in fresh media, for a total of 72 hours. The cells were then washed twice with EBSS, treated with 50 μL MTT solution for 4 hours, and lysed with MTT-detergent overnight. The absorbance was measured the following day using micro-plate reader at 570 nm.

PC3 cells = experiment: MTT cell viability assay; assay type: cell-based; conditions: drug concentration 5 μM, Dox to RNA 1:1, treated approximately one hour, total of 72 hours
Procedure: as §1

Compound: COc1cccc2c1C(=O)c1c(O)c3c(c(O)c1C2=O)C[C@@](O)(C(=O)CO)C[C@@H]3O[C@H]1C[C@H](N)[C@H](O)[C@H](C)O1 [Dox, Doxorubicin]
- effectiveness (cytotoxicity) in MTT assay (LNCaP cells): equipotent against PC3 and LNCaP cells
- effectiveness (cytotoxicity) in MTT assay (PC3 cells): equipotent against PC3 and LNCaP cells
